{"source": "the Kinase Knowledgebase extract (Sharma et al. 2016)"}
{"target": "CDK2 (UniProt P24941)", "assay": "Enzyme Assay", "conditions": "not given", "units": {"IC50": "µM"}}
{"smiles": "COCC(COc1nc(N)nc2[nH]cnc12)OC", "note": "(stereo not drawn)", "IC50": "> 100"}
{"smiles": "CC1(C)OCC(COc2nc(N)nc3[nH]cnc23)O1", "note": "(stereo not drawn)", "IC50": "> 100"}
{"smiles": "CCC(COc1nc(N)nc2[nH]cnc12)(OC)OC", "IC50": "> 100"}
{"smiles": "Nc1nc(OCC2CCCC2)c2nc[nH]c2n1", "IC50": "> 100"}
{"smiles": "C=CCOc1nc(N)nc2[nH]cnc12", "IC50": "> 100"}
{"smiles": "Nc1nc(OCC23CC4CC(CC(C4)C2)C3)c2nc[nH]c2n1", "IC50": "> 100"}
{"smiles": "CC(C)C(=O)COc1nc(N)nc2[nH]cnc12", "IC50": "> 100"}
{"smiles": "CCOC(C)(COc1nc(N)nc2[nH]cnc12)OCC", "IC50": "> 100"}
{"smiles": "Nc1nc(OCc2ccc3ccccc3c2)c2nc[nH]c2n1", "IC50": "> 100"}
{"smiles": "C=C(C)C1CC=C(COc2nc(N)nc3[nH]cnc23)CC1", "note": "(stereo not drawn)", "IC50": "> 100"}
{"smiles": "C=CCOc1ncnc2[nH]cnc12", "IC50": "> 100"}
{"smiles": "c1nc(OCC2CCCCO2)c2nc[nH]c2n1", "note": "(stereo not drawn)", "IC50": "> 100"}
{"smiles": "Nc1nc(OCC2CCCCO2)c2nc[nH]c2n1", "note": "(stereo not drawn)", "IC50": "> 100"}
{"smiles": "CC1(C)OC2OC(COc3nc(N)nc4[nH]cnc34)C3OC(C)(C)OC3C2O1", "note": "(stereo not drawn)", "IC50": "> 100"}
{"smiles": "Nc1nc(OCC(O)CO)c2nc[nH]c2n1", "note": "(stereo not drawn)", "IC50": "> 100"}
{"smiles": "COC(COc1nc(N)nc2[nH]cnc12)(OC)c1ccccc1", "IC50": "> 100"}
{"smiles": "Nc1nc(OCc2cccc3ccccc23)c2nc[nH]c2n1", "IC50": "> 100"}
{"smiles": "CC(C)C1(COc2nc(N)nc3[nH]cnc23)OCCO1", "IC50": "> 100"}
{"smiles": "COC1OC(COc2nc(N)nc3[nH]cnc23)C2OC(C)(C)OC12", "note": "(stereo not drawn)", "IC50": "> 100"}
{"smiles": "Nc1nc(OCC2COc3ccccc3O2)c2nc[nH]c2n1", "note": "(stereo not drawn)", "IC50": "> 100"}
{"smiles": "Nc1nc(OCCc2ccccc2)c2nc[nH]c2n1", "IC50": "> 100"}
{"smiles": "Nc1nc(OCC2COC3(CCCCC3)O2)c2nc[nH]c2n1", "note": "(stereo not drawn)", "IC50": "> 100"}
{"target": "CDK2 (UniProt P24941)", "assay": "Enzyme Assay", "conditions": "concentration not given here", "units": {"inhibition": "%"}}
{"smiles": "Cc1ccc(N=Nc2c(N)nc(N)nc2OCC2CCCCC2)cc1", "inhibition": 6}
